Experimental data as given in PubChem BioAssay AID463204 (Broad Institute, 2010).
Calls of active or inactive are those of the source.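 Rule for the calls: active = AC50 no more than ten times the top concentration tested, that is within one log above it; inconclusive = flat curve fit with activity between 30% and 70%, or invalid poor fit; inactive = AC50 beyond ten times the top tested dose.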

Tested on: S. cerevisiae Mot1-301 ts growth rescue, BacTiter-Glo ATP luminescence
Assay: restored Mot1-301 yeast growth at 38.5C – whole organism, S. cerevisiae, Mot1-301 ts mutant, luminescence, dose retest, SUMOylation pathway inhibitor project, confirmation (AID 463204);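 note: growth at restrictive 38.5 degrees C of Mot1-301 OY566 strain; actives raise luminescence by restoring growth of the ts mutant at high temperature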

SMILES	AC50
CCOc1ccc(C(C(=O)NC2CCCC2)N(C(=O)c2snc(C(N)=O)c2N)C2CCCC2)cc1 (stereo not given)	42 µM
O=C(COC(=O)c1ccccc1SCC(=O)N1CCCC1)NC1CCCCC1	> 42 µM (inactive)
Cc1cccc(N=C2C(=O)Nc3c(Cl)cccc32)c1	> 42 µM (inactive)
CCc1nc2ccc(C(=O)N3CCN(CC)CC3)cc2nc1CC	> 42 µM (inactive)
CCc1nnc2n1N=C(c1ccc(Cl)cc1)CS2	> 42 µM (inactive)
COc1ccc2[nH]c(C(=O)N/N=C/c3ccccc3OC)cc2c1	> 42 µM (inactive)
Cc1ccc(-n2c(SCC(=O)N(C)C3CCS(=O)(=O)C3)nc3ccccc3c2=O)cc1 (stereo not given)	> 42 µM (inactive)
COc1cc(S(=O)(=O)NC2CCCC2)c(OC)cc1C	> 42 µM (inactive)
O=C(CCc1ccccc1)NNC(=O)c1ccc(Br)cc1	> 42 µM (inactive)
O=C(NC1CCCC1)C(c1cccs1)N(C(=O)c1ccno1)c1ccccc1 (stereo not given)	> 42 µM (inactive)
CCOC(=O)Cn1c(=O)oc2cc(S(=O)(=O)NC(C)(C)CC)ccc21	> 42 µM (inactive)
CC1(C)C2CC[C@]3(C)C(CC=C4[C@@H]5C[C@@](C)(CO)[C@@H](O)C[C@]56C[C@@H](OC6=O)[C@]43C)[C@@]2(C)CC[C@@H]1O (stereo not given in full)	> 42 µM (inactive)
Cn1c(=O)c2c(ncn2CC(=O)OCC(=O)Nc2ccc(Cl)cc2)n(C)c1=O	> 42 µM (inactive)
CCOc1ccc(CN(C)C(C)C(=O)NCc2ccccc2)cc1 (stereo not given)	> 42 µM (inactive)
CCOC(=O)c1c(N)sc(C(=O)N2CCCC(C(N)=O)C2)c1C (stereo not given)	> 42 µM (inactive)
COC(=O)[C@H](Cc1ccccc1)NC(=O)NC(C)CCc1ccccc1 (stereo not given in full)	> 42 µM (inactive)
COc1cccc(/C=C2\SC(N3CCC(C)CC3)=NC2=O)c1OC	> 42 µM (inactive)
CC[n+]1c(/C=C(\C)SC)sc2ccccc21	29.5 µM
CS(=O)(=O)C1=NSC2=NC(=O)/C(=C\c3ccc(OS(=O)(=O)c4ccccc4)cc3)C(=N)N21	> 42 µM (inactive)
COc1cccc(NC(=O)CN2CCN(c3ccccc3F)CC2)c1	39.1 µM
CCC1CCCCN1C(=O)CSc1nnc(CNC(=O)c2ccco2)o1 (stereo not given)	> 42 µM (inactive)
O=C1CC(c2ccccc2)C(=O)N1c1cccc(O)c1 (stereo not given)	> 42 µM (inactive)
COC(=O)c1ccc(Cn2cc(Cl)cn2)cc1	> 42 µM (inactive)
Cc1ccc(-c2csc3ncn(CC(=O)N4CCOCC4)c(=O)c23)cc1	> 42 µM (inactive)
O=C(c1ccc([N+](=O)[O-])cc1)N1CCN(c2ncc(Br)cn2)CC1	> 42 µM (inactive)

SMILES	AC50
CCCCCCCCCCOC(=O)Cn1c(COc2ccc(OC)cc2)[n+](C)c2ccccc21	6.72 µM
Cc1cc(NC(=O)CSc2ncn(-c3ccccc3)n2)no1	> 42 µM (inactive)
COc1ccc(Cc2nnc(NCCO)[nH]c2=O)cc1	> 42 µM (inactive)
COc1ccc(OCC(=O)Nc2ccc(C)cc2)cc1	> 42 µM (inactive)
CN1CCN(CC(=O)N2c3ccccc3C(=O)Nc3cccnc32)CC1	> 42 µM (inactive)
CC(=O)N1CCN(CC(O)COc2ccc(OCc3ccccc3)cc2)CC1 (stereo not given)	> 42 µM (inactive)
CCOC(=O)c1[nH]c2ccc(Br)cc2c1NC(=O)CCN1CCOCC1	> 42 µM (inactive)
O=C(COC(=O)/C=C/c1ccco1)Nc1ncc(C(F)(F)F)cc1Cl	> 42 µM (inactive)
NC(=S)N/N=C/c1cccc(O)c1O	> 42 µM (inactive)
CC(C)(C)NC(=O)CN(C(=O)CCC(=O)Nc1nccs1)c1ccc2c(c1)OCCO2	> 42 µM (inactive)
COC(=O)C1(Cc2cc(-c3ccccc3)no2)CCN(C(=O)OC(C)(C)C)CC1	> 42 µM (inactive)
Cc1sc2nc(N)sc2c1C	> 42 µM (inactive)
CC(=O)c1ccc(N2CCN(CC(=O)Nc3cc(C)on3)CC2)cc1	> 42 µM (inactive)
CCCCNS(=O)(=O)c1ccc(OC)cc1	> 42 µM (inactive)
O=C(Nc1ccc([N+](=O)[O-])cn1)c1ccc2c(c1)OCO2	> 42 µM (inactive)
Cc1ccc2c(c1)C(=O)N1[C@H]3c4ccccc4OC[C@@H]3[C@H](c3ccccc3)[C@]1(C)C(=O)N2	0.86 µM
O=C(Cc1ccc(Cl)cc1Cl)OCC(=O)c1ccc[nH]1	> 42 µM (inactive)
NC(=O)C1=C[C@@H](c2ccc(Br)cc2)C[C@@H](OCCCCO)O1	> 42 µM (inactive)
CC(=O)N1N=C(N)SC12CCCC2	> 42 µM (inactive)
CC1=CS(=O)(=O)CC1Sc1ncn[nH]1 (stereo not given)	> 42 µM (inactive)
O=C(c1ccccc1)C(CN1CCCC1)c1ccccc1 (stereo not given)	4.34 µM
Cc1ccc(Sc2cnccc2C#N)cc1	> 42 µM (inactive)
Cc1cc(C)cc(C(=O)N2CCC3(CC2)NCCc2[nH]cnc23)c1	> 42 µM (inactive)
Cc1sc(NC(=O)c2ccc(Br)s2)c(C(N)=O)c1C	> 42 µM (inactive)
C[C@@]12C(=O)Nc3ccc(F)cc3C(=O)N1[C@H]1c3ccccc3OC[C@@H]1[C@@H]2c1ccccc1	3.24 µM

SMILES	AC50
CCn1c(-c2ccccc2)c(C(=O)CC#N)c2ccccc21	> 42 µM (inactive)
N#Cc1cccc(NC(=O)CSc2n[nH]c(=O)[nH]c2=O)c1	> 42 µM (inactive)
COc1ccc(NC(=O)CN(C)C(=O)/C=C/c2cn(-c3ccccc3)nc2-c2ccc(C)cc2)cc1	> 42 µM (inactive)
Cc1ccccc1-c1nnc(SCc2ccc(F)cc2)o1	> 42 µM (inactive)
CC(C)Oc1ccc(C2(C#N)CC[N+](C)(C)CC2)cc1	> 42 µM (inactive)
Cc1ccc(NC(=O)CSCC(=O)Nc2ccccc2N2CCCC2)cc1	> 42 µM (inactive)
Cc1ccc(NC(=O)CC2CS(=O)(=O)CC2CC(=O)Nc2ccc(C)c(C)c2)cc1C (stereo not given)	> 42 µM (inactive)
Cc1ccc(S(=O)(=O)/N=C(/Nc2ccc([N+](=O)[O-])cc2[N+](=O)[O-])c2ccccc2)cc1	15.8 µM
COCCn1c(SCC(=O)N2CCCC2)nnc1-c1ccoc1C	> 42 µM (inactive)
O=C(N/N=C/c1cccc([N+](=O)[O-])c1)C1COc2ccccc2O1 (stereo not given)	> 42 µM (inactive)
COCCn1c(N)c(N(Cc2ccccc2)C(=O)CN2C(=O)NC(C)(c3ccccc3)C2=O)c(=O)[nH]c1=O (stereo not given)	> 42 µM (inactive)
COc1ccccc1/C=C/C(=O)NC(=S)N1CCOCC1	> 42 µM (inactive)
O=C(N/N=C/C(Br)=C/c1ccccc1)c1cccnc1	21.5 µM
CC1Cc2ccccc2N1C(=O)Cn1c(=O)cc(O)c2ccccc21 (stereo not given)	> 42 µM (inactive)
C/C=C\C=C/C(=O)Nc1cccc(C2=NOC3(C2)C[C@@H](C(N)=O)N(C(=O)c2ccccc2)C3)c1 (stereo not given in full)	> 42 µM (inactive)
COc1cccc(S(=O)(=O)Nc2cccc(C(=O)N3CCOCC3)c2)c1	> 42 µM (inactive)
COc1ccc(NC(=O)Nc2ccccc2C(=O)N2CCCC2)cc1	> 42 µM (inactive)
COc1cc(NC(=O)C2=CC(c3ccco3)=NS(=O)(=O)N2C)cc(OC)c1OC	> 42 µM (inactive)
Cc1ccc(NC(=O)/C=N/OCC(=O)NCc2ccccc2Cl)cc1	> 42 µM (inactive)
COc1ccc(N(CC(=O)NCc2ccc(C)cc2)S(=O)(=O)c2c(C)nn(C)c2C)cc1	> 42 µM (inactive)
Cc1cc(Br)ccc1NC(=O)c1cnc(N2CCN(c3ccccn3)CC2)c2ccccc12	> 42 µM (inactive)
COC(=O)c1c(C)cc(O)c(C=O)c1O	17.7 µM
Cc1ccc2cccc(OCc3nnc(SCC(=O)O)n3C)c2n1	> 42 µM (inactive)
N#CC1=C(N)OC2=C(C(=O)CCC2)C1C1CC=CCC1 (stereo not given)	> 42 µM (inactive)
CC(C)C(=O)NCCSc1c[nH]c2ccccc12	> 42 µM (inactive)

SMILES	AC50
CCOc1ccc(CCNC(=O)COC(=O)COc2ccc(C(C)=O)cc2)cc1OCC	> 42 µM (inactive)
COc1ccc(C2=Nn3c(nnc3-c3ccco3)SC2)cc1	> 42 µM (inactive)
CCN1CCN(CC(=O)Nc2cccc(C)c2C)C(=O)C1=O	> 42 µM (inactive)
CCOc1c(P(=S)(N(C)C)N(C)C)c(C)nn1-c1ccccc1	> 42 µM (inactive)
Cc1sc2ncn(C(C)C(=O)OC3CCCCC3)c(=O)c2c1C (stereo not given)	> 42 µM (inactive)
CCOC(=O)CNC(=O)c1cccnc1	> 42 µM (inactive)
CC1CCN(CCCCOc2ccc(Cl)cc2)CC1	> 42 µM (inactive)
Cc1ccc(CSCCNC(=O)c2ccc(NS(C)(=O)=O)cc2)cc1	> 42 µM (inactive)
Cc1ccc(N(C(=O)Cn2nnc3ccccc32)C(C(=O)NC2CCCCC2)c2cn(C)nc2C)cc1 (stereo not given)	> 21 µM (inactive)
Cc1ccc(CN(C)C(=O)c2ccc3c(c2)NC(=O)CS3)o1	> 42 µM (inactive)
CCC(NC(=O)c1ccccc1NC(=O)c1ccco1)C(=O)NC1CCCCC1 (stereo not given)	> 42 µM (inactive)
COCC(=O)n1nc(NCc2ccc(OC)cc2)nc1NCc1ccc(OC)cc1	> 42 µM (inactive)
O=C(c1ccccc1F)N1CCN=C1SCc1cccnc1	> 42 µM (inactive)
N=c1ncn(CC(O)CO)c2nc(N3CCOCC3)[nH]c12 (stereo not given)	> 42 µM (inactive)
COCCn1c(-c2ccc(Cl)cc2)cnc1SCC(=O)NCCc1ccc(OC)c(OC)c1	> 42 µM (inactive)
CN1C(=O)C(=Cc2cn(CC(=O)N3CCCC3)c3ccccc23)C(=O)N(C)C1=O	> 42 µM (inactive)
CS(=O)(=O)N1CCCC(C(=O)Nc2ccc(F)cc2F)C1 (stereo not given)	> 42 µM (inactive)
c1ccc(-c2csc(NC3CCCCC3)n2)cc1	> 42 µM (inactive)
O=C(c1ccco1)N1CCN(CC(=O)N2c3ccccc3CCc3ccccc32)CC1	> 42 µM (inactive)
O=c1[nH]c(O)c(N=Nc2cc([N+](=O)[O-])ccc2O)c(=O)[nH]1	> 42 µM (inactive)
Cc1noc(C)c1S(=O)(=O)N1CCCC(C(=O)NCC2CCCO2)C1 (stereo not given)	> 42 µM (inactive)
CC(C)C1OC2(C)OC(=N)C1(C#N)C(C#N)(C#N)C2c1ccccc1 (stereo not given)	> 42 µM (inactive)
CC(=O)c1cccc(N2C(=NC(=O)C3CCCCC3)SC3CS(=O)(=O)CC32)c1 (stereo not given)	> 42 µM (inactive)
CSc1ccccc1-n1nnnc1SCC(=O)Nc1ccccc1C	> 42 µM (inactive)
Cc1ccccc1CSc1n[nH]c(NS(=O)(=O)c2ccccc2)n1	> 21 µM (inactive)
